According to ChEMBL document CHEMBL1125926, “Anesthetic steroid mobility in model membrane preparations as examined by high-resolution 1H and 2H NMR spectroscopy” (1991):
Calls of active or inactive are those of the source. No cut-off for these calls is given here.

Key:
[1] = Compound was evaluated for anesthetic activity (lowest dose producing loss of righting reflex); format: functional
[2] = Compound was evaluated for anesthetic activity (lowest dose producing loss of righting reflex); IA=Inactive; format: functional

SMILES	Activity [1] [mg/kg]	Activity [2]
CC(=O)[C@H]1CC[C@H]2[C@@H]3CC[C@H]4C[C@H](O)CC[C@]4(C)[C@H]3CC[C@]12C [BREXANOLONE]	3.1	
CC(=O)C1=CCC2C3CC[C@H]4C[C@H](O)CCC4(C)C3C(=O)CC12C (some centres not stated)		inactive
CC(=O)C1CC[C@H]2[C@@H]3CC[C@@H]4C[C@@H](O)CCC4(C)[C@H]3CCC12C (some centres not stated)	25	
CC(=O)[C@H]1CC[C@H]2[C@@H]3CC[C@@H]4C[C@H](O)CC[C@]4(C)[C@H]3C(=O)C[C@]12C [RENANOLONE]	6.3	
CC(=O)C1CC[C@H]2[C@@H]3CC[C@@H]4C[C@H](O)CCC4(C)[C@H]3CCC12C (some centres not stated)	3.1	
CC(=O)C1CC[C@H]2[C@@H]3CC[C@H]4C[C@@H](O)CCC4(C)[C@H]3CCC12C (some centres not stated)	100	
CC(=O)[C@H]1CC[C@H]2[C@@H]3CC[C@H]4C[C@H](O)CC[C@]4(C)[C@H]3C(=O)C[C@]12C [ALFAXALONE]	3.1	
